Entries after “also recorded” stand apart in the source; their conditions may differ.
What was measured:
[1] = tested on: C57Bl/6 mice after 30 minutes MCAO; experiment: Middle cerebral artery occlusion (MCAO) model of mild ischemic injury; format: in vivo, mouse; conditions: 5 mg/kg i.p. daily
Method: Animals and Group Allocation for middle cerebral artery occlusion (MCAO) study. C57BL/6 (13 weeks old, Charles River, Germany) male mice were handled according to governmental (LaGeSo-G0249/15) and internal (MDC/Charitd) rules and regulations, having free access to food and water. A total of 24 male mice were analysed after a 30 minutes of left-sided MCAO. Animals were randomly attributed to treatment paradigms, and experimenters were blinded at all stages of interventions. The mice were injected intraperitoneally (i.p.) every day for the 7 days, subsequently of the behavioral tests, with the compound (n=11) or with the vehicle ([…], n=13).
Induction of cerebral ischemia. Mice were anesthetized for induction with 3-4% isoflurane and maintained in 1.5% isoflurane in 70% N2O and 30% O2 using a vaporizer. MCAO was essentially performed as described elsewhere (Endres et al., 2000). In brief, brain ischemia was induced with a silicone rubber-coated monofilament 7-0, diameter 0.06-0.09 mm, length 20 mm; diameter with coating […]; coating length 9-10 mm. The filament was introduced into the internal carotid artery up to the anterior cerebral artery. Thereby, the middle cerebral artery and anterior choroidal arteries were occluded. The filament was removed after 30 min to allow reperfusion.
MRI was performed using a 7 Tesla rodent scanner (Pharmascan 70/16, Bruker BioSpin, Bruker, Billerica, USA) with a 16 cm horizontal bore magnet and a 9 cm (inner diameter) shielded gradient with an H-resonance-frequency of 300 MHz and a maximum gradient strength of 300 mT/m. For imaging a 20 mm-1H-RF quadrature-volume resonator with an inner diameter of 20 mm was used. Data acquisition and image processing were carried out with the Bruker software Paravision 5.1. During the examinations mice were placed on a heated circulating water blanket to ensure constant body temperature of 37° C. Anaesthesia was induced with 2.5% and maintained with 2.0-1.5% isoflurane (Forene, Abbot, Wiesbaden, Germany) delivered in an O2/N2 mixture (0.3/0.7 L/min) via a facemask under constant ventilation monitoring (Small Animal Monitoring & Gating System, SA Instruments, New York, USA). For imaging the mouse brain a T2-weighted 2D turbo spin-echo sequence was used (imaging parameters TR/TE=4200/36 ms, rare factor 8, 4 averages, 32 axial slices with a slice thickness of 0.5 mm, field of view of 2.56×2.56 cm, matrix size 256×256).
Calculation of lesion volume was carried out with the program Analyze 10.0 (AnalyzeDirect, Inc., Overland Park, USA). The hyperintense ischemic areas in axial T2-weighted images were assigned with a region of interest tool. This enables threshold based segmentation by connecting all pixels within a specified threshold range about the selected seed pixel and results in 3D object map of the whole stroke region. Further the total volume of the whole object map was automatically calculated.
The Rotarod test was performed to access motor coordination using a treadmill with a diameter of 3 cm (TSE Systems, Chesterfield, USA). This test was performed with accelerating velocity (4-40 rpm) and maximal velocity was achieved after 300 s. The time until the animals dropped was measured. Animals were trained on day 2 and 3 before MCAO and baseline was taken on the day before MCAO. Tests were always performed four times and means were used for statistical analysis.
A vertical pole (80 cm high with rough surface) was used for this test, to analyse extrapyramidal motor locomotion. Mice were placed head upward on the top of the pole. The time taken to orientate the body completely downwards, making a 180° turn (t turn), and to reach the floor with all four paws (t down) were recorded. If the animal was unsuccessful for either task, it was scored the maximum time that any other animal from the same experimental group took to perform the task. Animals were trained on day 2 and 3 before MCAO and baseline was taken on the day before MCAO. […]

iNOS = experiment: NOS enzyme activity assay (Eurofins), iNOS; format: biochemical; conditions: C1: 1 μM up to 5 μM as printed; 30 min reaction
Method: In mammalians NO is produced by the three isoforms of NOS: iNOS, eNOS, and nNOS. To evaluate the direct influence of cl on the different isoforms of NOS, an enzyme activity assay was conducted by Eurofins. C1 was mixed with the enzyme buffer, which included co-factors and substrates and by adding the enzyme the reaction was initiated. After 30 min the reaction was stopped, and NO concentration was measured. The results are normalised to positive control performed without any additional compounds and are presented as percentage in inhibition. […] To test the compounds effect on iNOS a concentration range from […] 5 μM were applied ([…], 1, 10, 100 nM, 1, and 5 μM), and for testing eNOS and nNOS 1 nM and 1 μM were applied.

eNOS = biological target: T1, eNOS (Homo sapiens, UniProt P29474); experiment: NOS enzyme activity assay (Eurofins), eNOS; format: biochemical; conditions: C1: 1 nM and 1 μM; 30 min reaction
T1 construct: Eurofins (contract assay service)
Method: To evaluate the direct influence of cl on the different isoforms of NOS, an enzyme activity assay was conducted by Eurofins. C1 was mixed with the enzyme buffer, which included co-factors and substrates and by adding the enzyme the reaction was initiated. After 30 min the reaction was stopped, and NO concentration was measured. The results are normalised to positive control performed without any additional compounds and are presented as percentage in inhibition. […] To test the compounds effect on iNOS a concentration range from 1 μM up to 5 μM were applied (1, 10, 100 μM, 1, 10, 100 nM, 1, and 5 μM), and for testing eNOS and nNOS 1 nM and 1 μM were applied.

[2] = Intravenous pharmacokinetic study in mice (blood plasma)
Method: Intravenous Pharmacokinetic Study in Mice. The intravenous pharmacokinetic study in mice was carried out by the company Touchstone Biosciences (Plymouth Meeting, USA) according to their standard procedures. In brief, 3 male adult mice of the CD-1 strain were fasted overnight. 5 mg/kg compound was given intravenously in one shot.

Q: Which “pole test, time descending the pole” value ([1]; day 2 after MCAO) does the source give for COc1ccc(NC(=O)C(NC(=O)C2CCCN2C(=O)OCc2ccccc2)c2ccc(OC)cc2)cc1 (stereo not drawn) [C1] here?
A: Its value is 6.592 s.

Q: What about the “pole test, time to turn 180°” value ([1]; day 2 after MCAO) of the same compound?
A: The value was 1.175 s.

Q: What about the “accelerated Rotarod test” value ([1]; day 2 and 5 after MCAO, vs vehicle) of the same compound?
A: The value was “no differences; also recorded: No significant difference”.

Q: What about the “volume of the ischemic lesion (MRI)” value ([1]; day 3 after MCAO, vs vehicle) of the same compound?
A: Its value is “did not cause a significant difference; also recorded: No significant difference”.

Q: What about the “pole test, difference to control group” value ([1]; day 5 after MCAO) of the same compound?
A: The value was “No differences were observed”.

Q: What about the “corner test, turns to the left in 10 turns” value ([1]; day 6 after MCAO) of the same compound?
A: Its value is 7.00.

Q: And the “enzymatic activity of iNOS” value (iNOS)?
A: The value was “does not interfere”.

Q: What about the “enzymatic activity of eNOS” value (eNOS) of the same compound?
A: Its value is “does not interfere”.

Q: And the “survival / health issues within 24 hours” value ([2]; 5 mg/kg intravenous, 3 mice)?
A: Its value is “All mice survived; also recorded: no health issues were reported and all mice survived”.

Q: And the “concentration in blood plasma” value ([2]; 5 min after 5 mg/kg intravenous, CD-1 male mice)?
A: The value was 12 µM.

Q: What about the concentration at 5 min ([2]; male, CD-1, mouse, plasma, intravenous, 5 mg/kg, concentration in blood plasma, 5 min after 5 mg/kg intravenous, CD-1 male mice) of the same compound?
A: Its concentration at 5 min is 11.9 µM.

Q: What about the concentration at 24 h ([2]; male, CD-1, mouse, plasma, intravenous, 5 mg/kg, concentration in blood plasma, 24 hours after 5 mg/kg intravenous, CD-1 male mice) of the same compound?
A: The concentration at 24 h was 1.26 nM.

Reference: patent publication US20240025849A1 (MAX DELBRÜCK-CENTRUM FÜR MOLEKULARE MEDIZIN IN DER …, priority 2020, published 2024)
